Measurements from article PMC8234620, “An Integrated Peptidomics and In Silico Approach to Identify Novel Anti-Diabetic Peptides in Parmigiano-Reggiano Cheese” (Biology, 2021).

Tests used:
[1] = target: T1, porcine pancreatic α-amylase (Sus scrofa, UniProt P00690); assay: α-Amylase assay; format: biochemical; details: synthetic peptides; n.a. = not active
T1 sequence (P00690 16-511): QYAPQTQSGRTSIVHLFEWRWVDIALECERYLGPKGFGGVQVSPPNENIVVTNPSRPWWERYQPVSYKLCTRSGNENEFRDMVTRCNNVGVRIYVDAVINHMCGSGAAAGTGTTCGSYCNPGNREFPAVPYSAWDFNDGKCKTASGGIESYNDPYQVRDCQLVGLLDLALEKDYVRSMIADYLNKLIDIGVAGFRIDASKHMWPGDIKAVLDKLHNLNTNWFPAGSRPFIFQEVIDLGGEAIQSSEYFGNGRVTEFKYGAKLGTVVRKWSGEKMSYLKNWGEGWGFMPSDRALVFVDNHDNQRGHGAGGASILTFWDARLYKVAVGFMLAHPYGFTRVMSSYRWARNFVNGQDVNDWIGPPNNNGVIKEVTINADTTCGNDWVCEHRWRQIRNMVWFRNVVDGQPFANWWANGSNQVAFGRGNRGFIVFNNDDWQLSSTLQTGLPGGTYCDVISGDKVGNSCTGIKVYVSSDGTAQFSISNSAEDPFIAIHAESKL
Description: α-Amylase assay was performed in accordance with McDougall et al. adapted to a microplate reader. For the reaction, 5 μL of 2 U/mL of porcine pancreatic α-amylase (dissolved in sodium phosphate buffer 20 mmol/L pH 6.9 containing 6.7 mmol/L NaCl) were mixed with 45 μL of sodium phosphate buffer or different concentrations of water-soluble low-molecular weight peptide extracts. The mixture was incubated at 37 °C for 20 min before adding 50 μL of 1% starch solution. The reaction was carried out at 37 °C for 10 min and stopped by the addition of dinitrosalicylic acid solution, followed by 15 min boiling in a water bath. After the addition of 450 μL of water, 200 μL of solution was transferred in a 96-well plate and the absorbance was read at 540 nm. Results were expressed as IC50, namely the peptides concentration (expressed in mg/mL) able to inhibit the enzymatic activity by 50%. The IC50 values were calculated by plotting the peptide concentration (base-10 logarithm) as a function of the percentage of enzyme inhibition.
(§1) Selected peptides were then synthesized (Bio-Fab Research, Rome, Italy) and tested for their inhibitory activity against DPP-IV, α-glucosidase, and α-amylase. The assays were carried out as reported in Section 2.3. The results were expressed as IC50 values.

[2] = target: yeast α-glucosidase (Saccharomyces cerevisiae, UniProt P53341); assay: α-Glucosidase assay; format: biochemical; details: synthetic peptides; n.a. = not active
Description: α-Glucosidase assay was performed as reported in Bellesia et al., adapted to a microplate reader. The reaction was performed by mixing 66.7 μL of potassium phosphate buffer (67 mmol/L, pH 6.8), 3.3 μL of glutathione 3 mmol/L, 20 μL of different concentrations of water-soluble low-molecular weight peptide extracts, and 5 μL of yeast α-glucosidase 0.2 U/mL. After 20 min of incubation at 37 °C, the reaction was started by the addition of 5 μL of p-nitrophenyl-glucose 5 mmol/L. After a further 20 min of incubation at 37 °C, the reaction was stopped by the addition of 150 μL of Na2CO3 100 mmol/L. The amount of released p-nitrophenol was determined by reading at 405 nm with a microplate reader. Results were expressed as IC50 as reported above.
as §1

[3] = target: T2, rat intestinal DPP-IV (Rattus norvegicus, UniProt P14740); assay: Dipeptidyl peptidase IV (DPP-IV) assay; format: biochemical; details: synthetic peptides
T2 construct: 10 μL of rat intestinal DPP-IV (0.1 U/mL in the assay); from tissue; host or cells: rat intestine
Description: DPP-IV assay was performed as described in Tagliazucchi et al.. Briefly, in a 96-well plate, 10 μL of rat intestinal DPP-IV (0.1 U/mL in the assay) were mixed with 145 μL of Tris-HCl buffer (pH 7.0; 0.1 mol/L) and 40 μL of different concentrations of water-soluble low-molecular weight peptide extracts. After 20 min of incubation at 37 °C, the reaction was started by the addition of 5 μL of glycine-proline-p-nitroanilide (6.4 mmol/L). The amount of released p-nitroanilide was determined after 20 min of incubation at 37 °C by reading at 405 nm in a microplate reader. Results were expressed as IC50 as reported above.
as §1

[4] = tested on: angiotensin converting enzyme; details: cited from earlier work; for Bioactivity: ACE-inhibition: ref BIOPEP database and Milk Bioactive Peptides Database; for IC50 values against ACE: ref [47],[48],[49]
[5] = set-up: method as in PMID 16899668, doi:10.1016/j.foodres.2015.12.007; details: spontaneously hypertensive rats; ref [48],[49]; cited from earlier work
[6] = set-up: method as in BIOPEP database and Milk Bioactive Peptides Database; details: ref BIOPEP database and Milk Bioactive Peptides Database; cited from earlier work
[7] = set-up: method as in BIOPEP database and Milk Bioactive Peptides Database; details: ref BIOPEP database and Milk Bioactive Peptides Database; cited from earlier work; remark: listed apart in the source
[8] = set-up: method as in BIOPEP database and Milk Bioactive Peptides Database; details: ref BIOPEP database and Milk Bioactive Peptides Database; cited from earlier work; remark: listed apart in the source
[9] = tested on: α-glucosidase; details: cited from earlier work
[10] = set-up: method as in BIOPEP database and Milk Bioactive Peptides Database; details: ref BIOPEP database and Milk Bioactive Peptides Database; cited from earlier work; remark: listed apart in the source
[11] = tested on: Staphylococcus aureus, Streptococcus pyogenes, and Listeria monocytogenes; set-up: method as in PMID 8603791; details: mice; ref [50]; cited from earlier work
[12] = set-up: method as in PMID 27572703, PMID 33337010; details: mild hypertensive subjects; ref [47],[58]; cited from earlier work

Sequence of yeast α-glucosidase (P53341 whole entry): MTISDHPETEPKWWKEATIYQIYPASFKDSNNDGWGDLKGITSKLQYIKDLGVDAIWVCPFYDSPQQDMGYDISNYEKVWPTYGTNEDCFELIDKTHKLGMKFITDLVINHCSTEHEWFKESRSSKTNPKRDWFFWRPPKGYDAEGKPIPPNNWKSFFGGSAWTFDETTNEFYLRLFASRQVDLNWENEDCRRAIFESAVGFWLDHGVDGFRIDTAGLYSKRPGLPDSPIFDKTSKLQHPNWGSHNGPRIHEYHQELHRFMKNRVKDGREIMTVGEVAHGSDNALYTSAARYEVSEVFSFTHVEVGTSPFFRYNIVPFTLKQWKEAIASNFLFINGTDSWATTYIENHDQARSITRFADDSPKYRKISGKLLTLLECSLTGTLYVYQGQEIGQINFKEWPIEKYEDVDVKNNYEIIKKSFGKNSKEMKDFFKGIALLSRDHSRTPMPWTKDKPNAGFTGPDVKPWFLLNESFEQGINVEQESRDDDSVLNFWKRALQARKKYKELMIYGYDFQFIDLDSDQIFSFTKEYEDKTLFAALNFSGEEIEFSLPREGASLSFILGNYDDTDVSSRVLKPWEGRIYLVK
T2 sequence (P14740 whole entry): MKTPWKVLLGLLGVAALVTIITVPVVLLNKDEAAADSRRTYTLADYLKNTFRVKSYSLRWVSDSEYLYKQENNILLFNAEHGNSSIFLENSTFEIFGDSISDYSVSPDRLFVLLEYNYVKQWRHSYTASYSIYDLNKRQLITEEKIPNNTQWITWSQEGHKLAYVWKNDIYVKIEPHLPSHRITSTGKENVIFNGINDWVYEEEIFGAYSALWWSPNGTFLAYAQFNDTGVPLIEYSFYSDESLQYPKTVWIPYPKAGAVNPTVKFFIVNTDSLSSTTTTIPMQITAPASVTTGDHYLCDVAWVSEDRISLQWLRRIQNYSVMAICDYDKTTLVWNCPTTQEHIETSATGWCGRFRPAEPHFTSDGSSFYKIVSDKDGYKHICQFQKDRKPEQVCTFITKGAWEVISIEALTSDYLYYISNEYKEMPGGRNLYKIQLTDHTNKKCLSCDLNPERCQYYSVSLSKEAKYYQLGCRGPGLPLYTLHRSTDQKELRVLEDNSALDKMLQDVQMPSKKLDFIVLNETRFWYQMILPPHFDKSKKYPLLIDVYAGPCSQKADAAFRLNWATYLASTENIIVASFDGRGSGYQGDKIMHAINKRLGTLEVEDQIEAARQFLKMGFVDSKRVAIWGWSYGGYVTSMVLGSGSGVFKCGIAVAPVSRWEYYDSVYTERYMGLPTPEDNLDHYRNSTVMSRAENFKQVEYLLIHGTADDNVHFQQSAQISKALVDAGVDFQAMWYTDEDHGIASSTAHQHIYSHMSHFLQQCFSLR

Compound | Bioactivity: ACE-inhibition [4] | IC50 values against ACE [4] | Bioactivity: Anti-inflammatory [7] | Bioactivity: Immunomodulation [8] | further results
CC[C@H](C)[C@H](N)C(=O)N1CCC[C@H]1C(=O)N1CCC[C@H]1C(=O)O [IPP] |  |  |  |  | IC50 [1]: 763 ± 18.9 µM; IC50 [2]: 765 ± 15 µM; IC50 [3]: 169 ± 2.2 µM
LHLPLP (UniProt P02666 148-153, looked up, fragment) [β-casein f(133–138)] | ACE-inhibition | low |  |  | effect on systolic blood pressure [5]: powerful decreasing agents of systolic blood pressure
LLY (UniProt P02666 206-208, looked up, fragment) [β-casein f(191–193)] |  |  | Anti-inflammatory | Immunomodulation | Bioactivity: Antioxidant [6]: Antioxidant
LPLP (UniProt P02666 150-153, looked up, fragment) [β-casein f(135–138)] | ACE-inhibition | low |  |  | effect on systolic blood pressure [5]: powerful decreasing agents of systolic blood pressure
PFP (UniProt P02666 76-78, looked up, fragment) [β-casein f(61–63)] | ACE-inhibition |  |  |  | Bioactivity: α-glucosidase inhibition ([9]; ref BIOPEP database and Milk Bioactive Peptides Database): α-glucosidase inhibition; IC50 ([9]; ref [53], read-out: IC50 α-glucosidase, previously reported): 8.6 mM
PGPIPN (UniProt P02666 78-83, looked up, fragment) [β-casein f(63–68)] | ACE-inhibition |  | Anti-inflammatory | Immunomodulation | 
RPKHPIKHQGLPQEVLNENLLRF [αS1-casein f(1–23), anti-microbial peptide isracidin] |  |  |  | Immunomodulation | Bioactivity: Anti-microbial [10]: Anti-microbial; in vivo anti-microbial effect [11]: protecting mice
VPP | ACE-inhibition | very low | Anti-inflammatory |  | Bioactivity: Antioxidant [6]: Antioxidant; in vivo anti-hypertensive effect [12]: anti-hypertensive effect
